# Measurements published in US9271969B2, “Compounds as inhibitors of diacylglycerol O-acyltransferase type 1 enzyme” (KAINOS MEDICINE, INC., priority 2012, dated 2016).
# Legend:
# mouse DGAT1 = mouse DGAT1 (Mus musculus (Mouse), UniProt Q9Z2A7); test: Radiometric DGAT1 assay, mouse liver microsomes; assay type: biochemical; conditions: mouse liver microsomes having mouse DGAT1 activity
# Description: (§1) A second source of DGAT1 activity was human or mouse liver microsomes.
# human DGAT1 [1] = target: T1, human DGAT1 (Homo sapiens (Human), UniProt O75907); test: Radiometric DGAT1 assay, human liver microsomes; assay type: biochemical; conditions: Source of human DGAT activity B = human liver microsomes
# Description: as §1
# human DGAT1 [2] = target: T1, human DGAT1; test: biochemical
# Description: For this assay, a source of DGAT1 was needed. In that regard, a commercially available plasmid for expression of DGAT1 (e.g., pCMV6-recombinant human DGAT1 plasmid) was transfected for 24 hours in Hep3B cells. After transfection of the plasmid, human DGAT-1 expression was analyzed by Western blot or RT-PCR using whole cell extracts. […] Human and mouse DGAT activity were determined as follows.
# The plates were sealed, incubated overnight and counted the next morning on a liquid scintillation counter and luminometer.
# DGAT1 catalyzes the transfer of the radiolabelled decanoyl group onto the sn-3 position of didecanoyl glycerol. The resultant radiolabeled tridecanoyl glycerol (tricaprin) preferentially binds to the hydrophobic coating on the phospholipid-coated radiometric assay plate. The proximity of the radiolabeled product to the solid scintillant incorporated into the bottom of the radiometric assay plate induced for release from the scintillant, which was measured in the liquid scintillation counter and luminometer.
# IC50 values of the compounds were determined from concentration-dependent inhibition curves by using commercially available software.
# Chain of mouse DGAT1 (Q9Z2A7 whole entry): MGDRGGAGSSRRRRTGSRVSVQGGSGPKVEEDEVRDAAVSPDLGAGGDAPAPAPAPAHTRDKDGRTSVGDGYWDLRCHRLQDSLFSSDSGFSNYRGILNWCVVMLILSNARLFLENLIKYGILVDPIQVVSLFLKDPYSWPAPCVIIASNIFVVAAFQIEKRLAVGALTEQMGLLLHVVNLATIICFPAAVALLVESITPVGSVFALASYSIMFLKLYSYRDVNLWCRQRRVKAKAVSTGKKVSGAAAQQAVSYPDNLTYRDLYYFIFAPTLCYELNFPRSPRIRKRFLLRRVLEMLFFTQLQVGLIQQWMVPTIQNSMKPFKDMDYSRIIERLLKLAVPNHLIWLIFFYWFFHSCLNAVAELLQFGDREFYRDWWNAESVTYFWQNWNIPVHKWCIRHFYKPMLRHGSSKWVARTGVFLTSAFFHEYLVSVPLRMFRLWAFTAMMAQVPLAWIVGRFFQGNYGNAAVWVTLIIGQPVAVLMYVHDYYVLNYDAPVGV
# T1 sequence (O75907 whole entry): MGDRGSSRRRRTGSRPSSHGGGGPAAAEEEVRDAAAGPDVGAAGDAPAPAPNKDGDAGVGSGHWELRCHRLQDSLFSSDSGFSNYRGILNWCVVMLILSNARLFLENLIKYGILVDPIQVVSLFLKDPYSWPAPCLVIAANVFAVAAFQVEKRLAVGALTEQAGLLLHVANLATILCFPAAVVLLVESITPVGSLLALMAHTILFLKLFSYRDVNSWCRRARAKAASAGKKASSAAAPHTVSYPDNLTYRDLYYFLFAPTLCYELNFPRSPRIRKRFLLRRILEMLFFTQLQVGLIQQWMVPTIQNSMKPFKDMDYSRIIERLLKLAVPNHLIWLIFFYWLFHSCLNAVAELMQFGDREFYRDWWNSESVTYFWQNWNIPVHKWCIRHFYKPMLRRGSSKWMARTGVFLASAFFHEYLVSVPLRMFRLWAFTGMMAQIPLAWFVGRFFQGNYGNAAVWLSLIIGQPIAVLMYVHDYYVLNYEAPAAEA
smiles,measurement,setting,value
"O=C(O)C[C@H]1CC[C@H](c2ccc(-c3ccc4nc(C(=O)NCc5ccc(C(F)(F)F)cc5)cn4c3)cc2)CC1 [Compound 4, 2-((1r,4r)-4-(4-(2-((4-(Trifluoromethyl)benzyl)carbamoyl)imidazo[1,2-a]pyridin-6-yl)-phenyl)cyclohexyl)acetic acid]",IC50,mouse DGAT1,< 75 nM
same,IC50,human DGAT1 [1],< 150 nM
"COc1ccc(CNC(=O)c2cn3cc(-c4ccc([C@H]5CC[C@H](CC(=O)O)CC5)cc4)ccc3n2)cc1 [Compound 12, 2-((1r,4r)-4-(4-(2-((4-Methoxybenzyl)carbamoyl)imidazo[1,2-a]pyridin-6-yl)-phenyl)cyclohexyl)acetic acid]",IC50,mouse DGAT1,< 150 nM
same,IC50,human DGAT1 [2],< 25 nM
"O=C(O)C[C@H]1CC[C@H](c2ccc(-c3cn4cc(C(=O)NCc5ccc6c(c5)OCO6)nc4s3)cc2)CC1 [Compound 58, 2-((1r,4r)-4-(4-(6-((Benzo[d][1,3]dioxol-5-ylmethyl)carbamoyl)imidazo[2,1-b]thiazol-2-yl)-phenyl)cyclohexyl)acetic acid]",IC50,mouse DGAT1,< 325 nM
same,IC50,human DGAT1 [2],< 100 nM
"O=C(O)C[C@H]1CC[C@H](c2ccc(-c3ccc4nc(C(=O)NCc5ccc(C(F)(F)F)c(F)c5)cn4c3)cc2)CC1 [Compound 11, 2-((1r,4r)-4-(4-(2-((3-Fluoro-4-(trifluoromethyl)benzyl)carbamoyl)imidazo[1,2-a]pyridin-6-yl)phenyl)cyclohexyl)acetic acid]",IC50,mouse DGAT1,< 75 nM
same,IC50,human DGAT1 [2],< 50 nM
"Cc1ccccc1NC(=O)c1cn2cc(-c3ccc([C@H]4CC[C@H](CC(=O)O)CC4)cc3)ccc2n1 [Compound 32, 2-((1r,4r)-4-(4-(2-(o-Tolylcarbamoyl)imidazo[1,2-a]pyridin-6-yl)phenyl)cyclohexyl)acetic acid]",IC50,mouse DGAT1,< 1 nM
same,IC50,human DGAT1 [2],< 1 nM
"O=C(O)C[C@H]1CC[C@H](c2ccc(-c3ccc4nc(C(=O)NCc5ccc(OC(F)(F)F)cc5)cn4c3)cc2)CC1 [Compound 1, 2-((1r,4r)-4-(4-(2-((4-(Trifluoromethoxy)benzyl)carbamoyl)imidazo[1,2-a]pyridin-6-yl)phenyl)cyclohexyl)acetic acid]",IC50,mouse DGAT1,< 50 nM
same,IC50,human DGAT1 [2],< 10 nM
"Cc1cc(C)c(CNC(=O)c2cn3cc(-c4ccc(C5CCC(CC(=O)O)CC5)cc4)ccc3n2)c(C)c1 (centres unmarked) [Compound 44, 2-((1s,4s)-4-(4-(2-((2,4,6-Trimethylbenzyl)carbamoyl)imidazo[1,2-a]pyridin-6-yl)phenyl)cyclohexyl)acetic acid]",IC50,mouse DGAT1,< 10 nM
same,IC50,human DGAT1 [1],< 25 nM
"COc1ccc(OC(F)(F)F)cc1CNC(=O)c1cn2cc(-c3ccc([C@H]4CC[C@H](CC(=O)O)CC4)cc3)sc2n1 [Compound 55, 2-((1r,4r)-4-(4-(6-((2-Methoxy-5-(trifluoromethoxy)benzyl)carbamoyl)imidazo[2,1-b]-thiazol-2-yl)phenyl)cyclohexyl)acetic acid]",IC50,mouse DGAT1,< 25 nM
same,IC50,human DGAT1 [1],< 10 nM
"O=C(O)C[C@H]1CC[C@H](c2ccc(-c3cn4cc(C(=O)NC5(c6cc(F)ccc6F)CC5)nc4s3)cc2)CC1 [Compound 54, 2-((1r,4r)-4-(4-(6-((1-(2,5-Difluorophenyl)cyclopropyl)carbamoyl)imidazo[2,1-b]thiazol-2-yl)phenyl)cyclohexyl)acetic acid]",IC50,mouse DGAT1,< 25 nM
same,IC50,human DGAT1 [1],< 10 nM
"Cc1ccc(CNC(=O)c2nc3ccc(-c4ccc(C5CCC(CC(=O)O)CC5)cc4)cn3n2)cc1 (centres unmarked) [Compound 45, 2-((1s,4s)-4-(4-(2-((4-Methylbenzyl)carbamoyl)-[1,2,4]triazolo[1,5-a]pyridin-6-yl)phenyl)cyclohexyl)acetic acid]",IC50,mouse DGAT1,< 50 nM
same,IC50,human DGAT1 [1],< 50 nM
"CC(C)c1ccc(CNC(=O)c2cn3cc(-c4ccc([C@H]5CC[C@H](CC(=O)O)CC5)cc4)sc3n2)cc1 [Compound 53, 2-((1r,4r)-4-(4-(6-((4-Isopropylbenzyl)carbamoyl)imidazo[2,1-b]thiazol-2-yl)phenyl)cyclohexyl)acetic acid]",IC50,mouse DGAT1,< 100 nM
same,IC50,human DGAT1 [1],< 25 nM
"O=C(O)C[C@H]1CC[C@H](c2ccc(-c3ccc4nc(C(=O)NCc5cccc(OC(F)(F)F)c5)cn4c3)cc2)CC1 [Compound 7, 2-((1r,4r)-4-(4-(2-((3-(Trifluoromethoxy)benzyl)carbamoyl)imidazo[1,2-a]pyridin-6-yl)-phenyl)cyclohexyl)acetic acid]",IC50,mouse DGAT1,< 100 nM
same,IC50,human DGAT1 [1],< 175 nM
"COc1ccc(CNC(=O)c2cn3cc(-c4ccc([C@H]5CC[C@H](CC(=O)O)CC5)cc4)ccc3n2)cc1OC [Compound 23, 2-((1r,4r)-4-(4-(2-((3,4-Dimethoxybenzyl)carbamoyl)imidazo[1,2-a]pyridin-6-yl)phenyl)-cyclohexyl)acetic acid]",IC50,mouse DGAT1,< 25 nM
same,IC50,human DGAT1 [1],< 25 nM
"O=C(O)C[C@H]1CC[C@H](c2ccc(-c3ccc4nc(C(=O)Nc5cccc(OC(F)(F)F)c5)cn4c3)cc2)CC1 [Compound 5, 2-((1r,4r)-4-(4-(2-((3-(Trifluoromethoxy)phenyl)carbamoyl)imidazo[1,2-a]pyridin-6-yl)-phenyl)cyclohexyl)acetic acid]",IC50,mouse DGAT1,< 125 nM
same,IC50,human DGAT1 [1],< 100 nM
"CC(C)(C(=O)O)[C@H]1CC[C@H](c2ccc(-c3ccc4nc(C(=O)NCc5ccc(OC(F)(F)F)cc5)cn4c3)cc2)CC1 [Compound 66, 2-Methyl-2-((1r,4r)-4-(4-(2-((4-(trifluoromethoxy)benzyl)carbamoyl)imidazo[1,2-a]pyridin-6-yl)phenyl)cyclohexyl)propanoic acid]",IC50,mouse DGAT1,< 50 nM
same,IC50,human DGAT1 [1],< 10 nM
"O=C(O)CC1CCC(c2ccc(-c3ccc4nc(C(=O)NCc5c(F)cc(Cl)cc5F)cn4c3)cc2)CC1 (centres unmarked) [Compound 42, 2-((1s,4s)-4-(4-(2-((4-chloro-2,6-difluorobenzyl)carbamoyl)imidazo[1,2-a]pyridin-6-yl)phenyl)cyclohexyl)acetic acid]",IC50,mouse DGAT1,< 10 nM
same,IC50,human DGAT1 [1],< 10 nM
"O=C(O)C[C@H]1CC[C@H](c2ccc(-c3cn4cc(C(=O)NCc5cccc(OC(F)(F)F)c5)nc4s3)cc2)CC1 [Compound 50, 2-((1r,4r)-4-(4-(6-((3-(Trifluoromethoxy)benzyl)carbamoyl)imidazo[2,1-b]thiazol-2-yl)-phenyl)cyclohexyl)acetic acid]",IC50,mouse DGAT1,< 25 nM
same,IC50,human DGAT1 [1],< 50 nM
"CC(C)(C)c1ccc(CNC(=O)c2cn3cc(-c4ccc([C@H]5CC[C@H](CC(=O)O)CC5)cc4)ccc3n2)cc1 [Compound 8, 2-((1r,4r)-4-(4-(2-((4-(tert-Butyl)benzyl)carbamoyl)imidazo[1,2-a]pyridin-6-yl)phenyl)-cyclohexyl)acetic acid]",IC50,mouse DGAT1,< 50 nM
same,IC50,human DGAT1 [1],< 125 nM
"Cc1cccc(Cl)c1CNC(=O)c1cn2cc(-c3ccc(C4CCC(C(C)(C)C(=O)O)CC4)cc3)ccc2n1 (centres unmarked) [Compound 67, 2-((1s,4s)-4-(4-(2-((2-Chloro-6-methylbenzyl)carbamoyl)imidazo[1,2-a]pyridin-6-yl)phenyl)cyclohexyl)-2-methylpropanoic acid]",IC50,mouse DGAT1,< 50 nM
same,IC50,human DGAT1 [1],< 25 nM
"CC(C)(C)c1ccc(CNC(=O)c2cn3cc(-c4ccc([C@H]5CC[C@H](CC(=O)O)CC5)cc4)sc3n2)cc1 [Compound 46, 2-((1r,4r)-4-(4-(6-((4-(tert-Butyl)benzyl)carbamoyl)imidazo[2,1-b]thiazol-2-yl)phenyl)-cyclohexyl)acetic acid]",IC50,mouse DGAT1,< 50 nM
same,IC50,human DGAT1 [1],< 1 nM
"Cc1cc(Cl)cc(Cl)c1CNC(=O)c1cn2cc(-c3ccc(C4CCC(CC(=O)O)CC4)cc3)ccc2n1 (centres unmarked) [Compound 43, 2-((1s,4s)-4-(4-(2-((2,4-Dichloro-6-methylbenzyl)carbamoyl)imidazo[1,2-a]pyridin-6-yl)phenyl)cyclohexyl)acetic acid]",IC50,mouse DGAT1,< 10 nM
same,IC50,human DGAT1 [1],< 10 nM
"CC(C)(C(=O)O)[C@H]1CC[C@H](c2ccc(-c3ccc4nc(C(=O)NCc5ccccc5)cn4c3)cc2)CC1 [Compound 65, 2-((1r,4r)-4-(4-(2-(Benzylcarbamoyl)imidazo[1,2-a]pyridin-6-yl)phenyl)cyclohexyl)-2-methylpropanoic acid]",IC50,mouse DGAT1,< 125 nM
same,IC50,human DGAT1 [1],< 10 nM
"O=C(O)C[C@H]1CC[C@H](c2ccc(-c3ccc4nc(C(=O)Nc5cccc(C(F)(F)F)c5)cn4c3)cc2)CC1 [Compound 6, 2-((1r,4r)-4-(4-(2-((3-(Trifluoromethyl)phenyl)carbamoyl)imidazo[1,2-a]pyridin-6-yl)-phenyl)cyclohexyl)acetic acid]",IC50,mouse DGAT1,< 150 nM
same,IC50,human DGAT1 [1],< 75 nM
"O=C(O)C[C@H]1CC[C@H](c2ccc(-c3cn4cc(C(=O)NCc5ccc(OC(F)(F)F)cc5)nc4s3)cc2)CC1 [Compound 56, 2-((1r,4r)-4-(4-(6-((4-(Trifluoromethoxy)benzyl)carbamoyl)imidazo[2,1-b]thiazol-2-yl)-phenyl)cyclohexyl)acetic acid]",IC50,mouse DGAT1,< 50 nM
same,IC50,human DGAT1 [1],< 10 nM
"O=C(O)C[C@H]1CC[C@H](c2ccc(-c3cn4cc(C(=O)Nc5cccc(OC(F)(F)F)c5)nc4s3)cc2)CC1 [Compound 52, 2-((1r,4r)-4-(4-(6-((3-(Trifluoromethoxy)phenyl)carbamoyl)imidazo[2,1-b]thiazol-2-yl)-phenyl)cyclohexyl)acetic acid]",IC50,mouse DGAT1,< 10 nM
same,IC50,human DGAT1 [1],< 10 nM
"COc1ccccc1CNC(=O)c1cn2cc(-c3ccc([C@H]4CC[C@H](CC(=O)O)CC4)cc3)ccc2n1 [Compound 41, 2-((1r,4r)-4-(4-(2-((2-Methoxybenzyl)carbamoyl)imidazo[1,2-a]pyridin-6-yl)phenyl)cyclohexyl)acetic acid]",IC50,mouse DGAT1,< 75 nM
same,IC50,human DGAT1 [1],< 25 nM
"O=C(O)C[C@H]1CC[C@H](c2ccc(-c3cn4cc(C(=O)NCc5cc(OC(F)(F)F)ccc5F)nc4s3)cc2)CC1 [Compound 51, 2-((1r,4r)-4-(4-(6-((2-Fluoro-5-(trifluoromethoxy)benzyl)carbamoyl)imidazo[2,1-b]thiazol-2-yl)phenyl)cyclohexyl)acetic acid]",IC50,mouse DGAT1,< 50 nM
same,IC50,human DGAT1 [1],< 50 nM
"O=C(O)C[C@H]1CC[C@H](c2ccc(-c3ccc4nc(C(=O)NCc5ccccc5)cn4c3)cc2)CC1 [Compound 31, 2-((1r,4r)-4-(4-(2-(Benzylcarbamoyl)imidazo[1,2-a]pyridin-6-yl)phenyl)cyclohexyl)acetic acid]",IC50,mouse DGAT1,< 100 nM
same,IC50,human DGAT1 [1],< 50 nM
